Read-outs that look alike come from different tables or passages of the source.
How the values were obtained:
Type in all cases: biochemical
[1] = molecular target: T1, recombinant human DAO (diamine oxidase) (Homo sapiens, UniProt P19801); experiment: Activity on recombinant human DAO, Amplex Red method, 1 mM putrescine substrate; conditions: recombinant human DAO; for IC50: read-out: Inhibitory Activity (IC50, nM) DAO
T1 construct: purchased R&D systems
T1 sequence (P19801 20-751): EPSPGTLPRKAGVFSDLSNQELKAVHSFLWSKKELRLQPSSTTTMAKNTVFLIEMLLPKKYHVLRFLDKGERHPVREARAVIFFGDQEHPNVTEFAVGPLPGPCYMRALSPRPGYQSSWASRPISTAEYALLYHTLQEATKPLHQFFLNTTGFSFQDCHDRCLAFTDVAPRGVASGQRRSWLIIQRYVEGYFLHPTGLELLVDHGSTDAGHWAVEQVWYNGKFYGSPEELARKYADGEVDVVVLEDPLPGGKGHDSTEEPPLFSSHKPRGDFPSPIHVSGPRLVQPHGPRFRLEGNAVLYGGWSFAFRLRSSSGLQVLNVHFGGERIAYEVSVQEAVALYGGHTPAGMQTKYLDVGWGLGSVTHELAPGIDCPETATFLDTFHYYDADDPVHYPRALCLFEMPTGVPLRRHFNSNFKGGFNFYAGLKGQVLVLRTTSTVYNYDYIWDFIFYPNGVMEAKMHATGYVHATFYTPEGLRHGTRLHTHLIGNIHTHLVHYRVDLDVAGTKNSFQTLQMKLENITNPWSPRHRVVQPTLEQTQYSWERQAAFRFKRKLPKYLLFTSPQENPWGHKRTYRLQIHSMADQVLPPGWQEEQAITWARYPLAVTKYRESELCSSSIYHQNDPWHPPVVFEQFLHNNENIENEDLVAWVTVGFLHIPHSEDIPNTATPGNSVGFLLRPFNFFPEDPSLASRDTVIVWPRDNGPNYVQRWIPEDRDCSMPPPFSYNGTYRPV
Description: (§1) The compounds according to the present technology were evaluated in terms of activity on recombinant human VAP-1 (R&D systems) by measuring the level of hydrogen peroxide in horseradish peroxidase (HRP)-coupled reaction using Amplex Red Hydrogen Peroxide Assay Kit (Molecular Probes, Invitrogen, USA). The experiment was carried out at room temperature using benzylamine as a substrate. In the HRP-coupled reaction, hydrogen peroxide oxidation of 10-acetyl-3,7-dihydroxyphenoxazine (Amplex Red reagent) produces resorufin, which is a highly fluorescent compound. Briefly, the test compound was dissolved in dimethyl sulfoxide (DMSO) at a concentration of 20 mM. The dose-response assessment was made by 1:3 serial dilution in DMSO, thereby creating an 8 point curve. The concentration of the upper part was controlled according to the efficacy of the compounds, followed by dilution with a reaction buffer solution to obtain a final DMSO concentration less than 1%. To each well of a 96 black well plate, human VAP-1 purified in 50 mM sodium phosphate buffer solution (pH7.4) was added. The test compounds dissolved in DMSO were incubated with the human VAP-1 enzymes at 37° C. for 30 minutes. After 30-minute incubation, each well is added with a reaction mixture containing 200 uM Amplex Red reagent prepared from 50 mM sodium phosphate buffer solution (pH 7.4), 1 mM benzylamine, and 1 U/mL HRP. Fluorescence intensity was measured at several time points during 1-2 hours using a microplate reader (Flexstation3, Molecular Devices) under the wavelength condition exciting at 544 nm and reading the emission at 590 nm. The inhibitory effect of the compounds was measured as a decrease (%) in the signal rate as compared to the control group without any inhibitor (only diluted DMSO). Data was fixed to a logistic model with four variables and IC50 value was calculated using GraphPad Prism program.
(§2) In addition, the compounds according to the present technology were evaluated in terms of activity on a recombinant human MAO-A (monoamine oxidase-A, Sigma-Aldrich) and a recombinant human MAO-B (monoamine oxidase-B, Sigma-Aldrich) by using as substrates, 0.5 mM tyramine and 1 mM benzylamine, respectively, with a method similar to the activity evaluation method for recombinant human VAP-1. The compounds according to the present technology were also evaluated in terms of activity on a recombinant human DAO (diamine oxidase, R&D systems) by using as a substrate 1 mM putrescine with a method similar to the activity evaluation method for recombinant human VAP-1.

[2] = molecular target: T2, recombinant human MAO-B (monoamine oxidase-B) (Homo sapiens, UniProt P27338); experiment: Activity on recombinant human MAO-B, Amplex Red method, 1 mM benzylamine substrate; conditions: 1 mM benzylamine
T2 construct: purchased Sigma-Aldrich
T2 sequence (P27338 1-520): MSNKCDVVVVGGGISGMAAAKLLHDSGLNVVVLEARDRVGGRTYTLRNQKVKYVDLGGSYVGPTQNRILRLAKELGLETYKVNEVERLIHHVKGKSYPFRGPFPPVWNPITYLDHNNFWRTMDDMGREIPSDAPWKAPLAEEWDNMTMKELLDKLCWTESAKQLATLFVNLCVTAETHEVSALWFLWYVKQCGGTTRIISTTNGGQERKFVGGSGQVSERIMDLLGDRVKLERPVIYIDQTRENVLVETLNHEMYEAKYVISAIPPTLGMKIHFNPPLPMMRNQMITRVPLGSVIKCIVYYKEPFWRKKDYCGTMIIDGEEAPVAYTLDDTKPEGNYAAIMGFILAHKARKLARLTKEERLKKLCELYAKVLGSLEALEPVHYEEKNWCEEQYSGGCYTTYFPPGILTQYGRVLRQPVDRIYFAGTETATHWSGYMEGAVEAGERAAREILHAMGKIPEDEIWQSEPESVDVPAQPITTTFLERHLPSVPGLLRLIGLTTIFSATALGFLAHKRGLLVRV
Description: as §1, §2

[3] = molecular target: T3, recombinant human VAP-1 (Homo sapiens, UniProt Q16853); experiment: Activity on recombinant human VAP-1, Amplex Red HRP-coupled hydrogen peroxide assay, benzylamine substrate; conditions: recombinant human VAP-1, benzylamine substrate, read-out: Inhibitory Activity (IC50, nM) human VAP-1
T3 construct: purchased R&D systems
T3 sequence (Q16853 1-763): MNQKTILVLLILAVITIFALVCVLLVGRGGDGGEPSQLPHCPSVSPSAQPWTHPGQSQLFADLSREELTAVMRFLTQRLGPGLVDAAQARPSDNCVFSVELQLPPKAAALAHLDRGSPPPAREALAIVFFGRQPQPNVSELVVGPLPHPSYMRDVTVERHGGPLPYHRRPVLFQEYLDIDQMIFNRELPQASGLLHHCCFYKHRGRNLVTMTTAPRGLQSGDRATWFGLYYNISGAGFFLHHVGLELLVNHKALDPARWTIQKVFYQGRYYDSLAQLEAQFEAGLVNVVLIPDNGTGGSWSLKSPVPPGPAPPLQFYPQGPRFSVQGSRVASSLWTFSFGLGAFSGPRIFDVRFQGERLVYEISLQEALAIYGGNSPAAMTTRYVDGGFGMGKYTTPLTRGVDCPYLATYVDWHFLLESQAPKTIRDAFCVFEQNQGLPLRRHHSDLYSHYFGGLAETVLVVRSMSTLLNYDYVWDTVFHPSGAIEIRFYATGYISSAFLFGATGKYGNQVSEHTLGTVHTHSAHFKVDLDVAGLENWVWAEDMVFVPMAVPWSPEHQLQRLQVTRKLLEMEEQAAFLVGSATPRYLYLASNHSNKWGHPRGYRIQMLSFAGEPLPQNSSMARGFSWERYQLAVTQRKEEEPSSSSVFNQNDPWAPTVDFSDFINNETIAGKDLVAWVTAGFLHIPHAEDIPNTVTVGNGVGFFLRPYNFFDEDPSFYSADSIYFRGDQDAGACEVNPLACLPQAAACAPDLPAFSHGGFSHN
Description: as §1

[4] = 1 mM putrescine, * = between 10 and 100 nM, ** = between 300 and 1000 nM

IC50 [1, 4] [nM] | IC50 ([3]; 30 min preincubation at 37° C.) [nM] | Inhibitory Activity (IC50, nM) DAO [1, 4] | Inhibitory Activity (IC50, nM) MAO-B [2] | IC50 ([1]; 1 mM putrescine substrate) [nM] | IC50 [3] [nM] | SMILES | further results
13 | 3.3 | – | – | – | – | NC/C(=C/F)Cn1ncn(-c2cc(F)c(Br)c(F)c2)c1=O [Example 19, 2-[(2Z)-2-(aminomethyl)-3-fluoroprop-2-en-1-yl]-4-(4-bromo-3,5-difluorophenyl)-2,4-dihydro-3H-1,2,4-triazol-3-one] | IC50 ([2]; read-out: Inhibitory Activity (IC50, nM) MAO-B): 4.4 nM
– | 4.2 | no inhibitory | no inhibitory | – | – | Cc1c(-c2ccc(N3CCOCC3)nc2)cccc1-n1cnn(C/C(=C/F)CN)c1=O [Example 110, 2-[(2E)-2-(aminomethyl)-3-fluoroprop-2-en-1-yl]-4-{2-methyl-3-[6-(morpholin-4-yl)pyridin-3-yl]phenyl}-2,4-dihydro-3H-1,2,4-triazol-3-one] | –
– | 2.8 | no inhibitory | no inhibitory | – | – | Cc1c(-c2ccc3c(c2)OCO3)cccc1-n1cnn(C/C(=C/F)CN)c1=O [Example 111, 2-[(2E)-2-(aminomethyl)-3-fluoroprop-2-en-1-yl]-4-[3-(1,3-benzodioxol-5-yl)-2-methylphenyl]-2,4-dihydro-3H-1,2,4-triazol-3-one] | –
– | 2.5 | no inhibitory | no inhibitory | – | – | Cc1c(-c2ccc3c(c2)OCCO3)cccc1-n1cnn(C/C(=C/F)CN)c1=O [Example 112, 2-[(2E)-2-(aminomethyl)-3-fluoroprop-2-en-1-yl]-4-[3-(2,3-dihydro-1,4-benzodioxin-6-yl)-2-methylphenyl]-2,4-dihydro-3H-1,2,4-triazol-3-one] | –
520 | 3.2 | – | – | – | – | Cc1cc(-c2ccc(-c3nnc[nH]3)cc2)cnc1-n1cnn(C/C(=C\F)CN)c1=O [Example 135, 2-[(2Z)-2-(aminomethyl)-3-fluoroprop-2-en-1-yl]-4-{3-methyl-5-[4-(4H-1,2,4-triazol-3-yl)phenyl]pyridin-2-yl}-2,4-dihydro-3H-1,2,4-triazol-3-one] | –
6100 | 0.62 | – | – | – | – | Cc1cc(-c2ccc(-c3nnc[nH]3)cc2)cnc1-n1cnn(C/C(=C/F)CN)c1=O [Example 136, 2-[(2E)-2-(aminomethyl)-3-fluoroprop-2-en-1-yl]-4-{3-methyl-5-[4-(4H-1,2,4-triazol-3-yl)phenyl]pyridin-2-yl}-2,4-dihydro-3H-1,2,4-triazol-3-one] | –
1400 | 3.3 | – | – | – | – | Cc1cc(-c2cccc(-c3nnn[nH]3)c2)cnc1-n1cnn(C/C(=C/F)CN)c1=O [Example 144, 2-[(2E)-2-(aminomethyl)-3-fluoroprop-2-en-1-yl]-4-{3-methyl-5-[3-(1H-tetrazol-5-yl)phenyl]pyridin-2-yl}-2,4-dihydro-3H-1,2,4-triazol-3-one] | –
– | – | – | – | 2.7 | 0.53 | NC/C(=C\F)Cn1ncn(-c2ncc(-c3cccc(-c4nnn[nH]4)c3)s2)c1=O [Example 230, 2-[(2E)-2-(aminomethyl)-3-fluoroprop-2-en-1-yl]-4-{5-[3-(1H-tetrazol-5-yl)phenyl]-1,3-thiazol-2-yl}-2,4-dihydro-3H-1,2,4-triazol-3-one] | –
– | – | – | – | 0.086 | 0.94 | CC(=O)Nc1cc(-c2cnc(-n3cnn(C/C(=C/F)CN)c3=O)s2)ccn1 [Example 231, N-[4-(2-{1-[(2E)-2-(aminomethyl)-3-fluoroprop-2-en-1-yl]-5-oxo-1,5-dihydro-4H-1,2,4-triazol-4-yl}-1,3-thiazol-5-yl)pyridin-2-yl]acetamide] | –
– | – | – | – | 1.2 | 1.7 | NC/C(=C\F)Cn1ncn(-c2ncc(-c3ccc4c(c3)NC(=O)C4)s2)c1=O [Example 233, 6-(2-{1-[(2E)-2-(aminomethyl)-3-fluoroprop-2-en-1-yl]-5-oxo-1,5-dihydro-4H-1,2,4-triazol-4-yl}-1,3-thiazol-5-yl)-1,3-dihydro-2H-indol-2-one] | –
